We go through 17 compounds from patent US8163793B2, “Proline derivatives” (Hoffman-La Roche Inc., priority 2009, dated 2012).

The structures appear in SMILES notation. Where a name gives a salt, the structure may show the parent alone.

In one assay the target is Cathepsin S (UniProt P25774). The assay is described as follows: Cathepsin enzyme inhibition assay (fluorogenic peptide substrate Z-Val-Val-Arg-AMC), Cathepsin S. Particulars: enzyme 1 nM, substrate 20 μM, pH 6.5; read-out: CatS IC50. It is filed as biochemical, human and mouse. The method in brief:
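Compounds were combined with 1 nM human or mouse enzyme, and substrate then started the reaction. The buffer was potassium phosphate (100 mM, pH 6.5) containing EDTA-Na 5 mM, Triton X-100 0.001% and […] 5 mM.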

Another assay deals with Cat L (UniProt P07711). The assay is described as follows: Cathepsin enzyme inhibition assay (fluorogenic peptide substrate Z-Val-Val-Arg-AMC), Cathepsin L. It is filed as biochemical, human and mouse. Particulars: enzyme 1 nM, substrate 20 μM, pH 6.5; read-out: CatL IC50. The method in brief:
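Fluorogenic cleavage of Z-Val-Val-Arg-AMC (20 μM) by 1 nM Cat L was monitored at ex 360/em 465 nm for 20 min, the linear phase. The buffer was 100 mM potassium phosphate pH 6.5 with 5 mM EDTA and DTT. IC50 values were derived by standard methods, in μM.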

In the case of `Cc1cc(N2C[C@H](S(=O)(=O)c3ccccc3C(F)(F)F)C[C@H]2C(=O)NC2(C#N)CC2)n(-c2ccn(C(=O)OCC(C)C)c(=O)c2)n1` [Example 231, 4-{5-[(2S,4R)-2-(1-Cyano-cyclopropylcarbamoyl)-4-(2-trifluoromethyl-benzenesulfonyl)-pyrrolidin-1-yl]-3-methyl-pyrazol-1-yl}-2-oxo-2H-pyridine-1-carboxylic acid Isobutyl ester], the IC50 on Cathepsin S was 0.5 nM; at Cat L it was over 25000 nM.
The matching figures for `N#CC1(NC(=O)[C@@H]2C[C@@H](S(=O)(=O)c3ccccc3Cl)CN2c2nnc(C(F)(F)F)s2)CC1` [Example 399]: 0.98 nM and over 25000 nM.
Consider `CN(C)c1ccc(S(=O)(=O)[C@@H]2C[C@@H](C(=O)NC3(C#N)CC3)N(C(=O)C3(C(F)(F)F)CC3)C2)c(Cl)c1` [Example 292, (2S,4R)-4-(2-Chloro-4-dimethylamino-benzenesulfonyl)-1-(1-trifluoromethyl-cyclopropanecarbonyl)-pyrrolidine-2-carboxylic acid (1-cyano-cyclopropyl)-amide], for which the IC50 on Cathepsin S came out at 0.157 nM; at Cat L, 4130 nM.
Consider `N#CC1(NC(=O)[C@@H]2C[C@@H](S(=O)(=O)c3c(Cl)cccc3Cl)CN2)CC1` [Example 16, (2S,4R)-4-(2,6-Dichloro-benzenesulfonyl)-pyrrolidine-2-carboxylic acid (1-cyano-cyclopropyl)-amide Hydrochloride], for which the half-maximal inhibitory concentration (IC50) on Cathepsin S was 13.2 nM; on Cat L it was at least 25000 nM.
Consider `Cc1cc(N2C[C@H](S(=O)(=O)CC3CC3)C[C@H]2C(=O)NC2(C#N)CC2)n(Cc2ccccc2)n1` [Example 445, (2S,4R)-1-(2-Benzyl-5-methyl-2H-pyrazol-3-yl)-4-cyclopropylmethanesulfonyl-pyrrolidine-2-carboxylic acid (1-cyano-cyclopropyl)-amide], for which the IC50 is 725 nM at Cathepsin S and at least 25000 nM at Cat L.
Consider `Cc1cc(N2C[C@H](S(=O)(=O)c3ccccc3C(F)(F)F)C[C@H]2C(=O)NC2(C#N)CC2)n(C2CCNCC2)n1` [Example 407, (2S,4R)-1-(5-Methyl-2-piperidin-4-yl-2H-pyrazol-3-yl)-4-(2-trifluoromethyl-benzenesulfonyl)-pyrrolidine-2-carboxylic acid (1-cyano-cyclopropyl)-amide], for which the IC50 was 38.5 nM on Cathepsin S and at least 25000 nM at Cat L.
On to `CN1CCN(c2ccc(S(=O)(=O)[C@@H]3C[C@@H](C(=O)NC4(C#N)CC4)N(C(=O)C4(C(F)(F)F)CC4)C3)c(C(F)(F)F)c2)CC1` [Example 260, (2S,4R)-4-[4-(4-Methyl-piperazin-1-yl)-2-trifluoromethyl-benzenesulfonyl]-1-(1-trifluoromethyl-cyclopropanecarbonyl)-pyrrolidine-2-carboxylic acid (1-cyano-cyclopropyl)-amide], for which the values for the IC50 on Cathepsin S and on Cat L were 0.245 nM and 16500 nM, respectively.
As for `N#CC1(NC(=O)[C@@H]2C[C@@H](S(=O)(=O)c3ccc(-n4cccn4)cc3Cl)CN2C=O)CC1` [Example 148, (2S,4R)-4-(2-Chloro-4-pyrazol-1-yl-benzenesulfonyl)-1-formyl-pyrrolidine-2-carboxylic acid (1-cyano-cyclopropyl)-amide], the half-inhibitory concentration (IC50) at Cathepsin S is 16 nM; at Cat L it was at least 25000 nM.
In the case of `N#CC1(NC(=O)[C@@H]2C[C@@H](S(=O)(=O)c3ccc(Cl)cc3Cl)CN2C(=O)C2(C(F)(F)F)CCC2)CC1` [Example 169, (2S,4R)-4-(2,4-Dichloro-benzenesulfonyl)-1-(1-trifluoromethyl-cyclobutanecarbonyl)-pyrrolidine-2-carboxylic acid (1-cyano-cyclopropyl)-amide], the IC50 came out at 0.4 nM at Cathepsin S and 7580 nM at Cat L.
`CC(C)(C)OC(=O)N1C[C@H](S(=O)(=O)c2ccc(N3CCC(C(F)(F)F)CC3)cc2Cl)C[C@H]1C(=O)NC1(C#N)CC1` [Example 153, (2S,4R)-4-[2-Chloro-4-(4-trifluoromethyl-piperidin-1-yl)-benzenesulfonyl]-2-(1-cyano-cyclopropylcarbamoyl)-pyrrolidine-1-carboxylic acid tert.-butyl ester]: the IC50 at Cathepsin S turned out to be 2.5 nM; at Cat L it was 44000 nM.
For the compound `Cc1cc(N2C[C@H](S(=O)(=O)c3ccccc3C(F)(F)F)C[C@H]2C(=O)NC2(C#N)CC2)n(C)n1` [Example 300, (2S,4R)-1-(2,5-Dimethyl-2H-pyrazol-3-yl)-4-(2-trifluoromethyl-benzenesulfonyl)-pyrrolidine-2-carboxylic acid (1-cyano-cyclopropyl)-amide], the half-inhibitory concentration (IC50) was 0.885 nM at Cathepsin S and 50700 nM at Cat L.
The matching figures for `N#CC1(NC(=O)[C@@H]2C[C@@H](S(=O)(=O)c3ccccc3C(F)(F)F)CN2c2cc(C3CC3)nn2C2CCC2)CC1` [Example 398, (2S,4R)-1-(2-Cyclobutyl-5-cyclopropyl-2H-pyrazol-3-yl)-4-(2-trifluoromethyl-benzenesulfonyl)-pyrrolidine-2-carboxylic acid (1-cyano-cyclopropyl)-amide]: 0.555 nM and 18800 nM.
For the compound `CC(=O)Nc1cccc(-n2nc(C)cc2N2C[C@H](S(=O)(=O)c3ccccc3C(F)(F)F)C[C@@H]2C(=O)NC2(C#N)CC2)c1` [Example 357, (2R,4R)-1-[2-(3-Acetylamino-phenyl)-5-methyl-2H-pyrazol-3-yl]-4-(2-trifluoromethyl-benzenesulfonyl)-pyrrolidine-2-carboxylic acid (1-cyano-cyclopropyl)-amide], the results for the IC50 on Cathepsin S and at Cat L were 17.5 nM and at least 25000 nM, respectively.
In the case of `CC(C)(C)C(=O)N1C[C@H](S(=O)(=O)c2ccccc2Cl)C[C@H]1C(=O)NC1(C#N)CC1` [Example 217, (2S,4R)-4-(2-Chloro-benzenesulfonyl)-1-(2,2-dimethyl-propionyl)-pyrrolidine-2-carboxylic Acid (1-cyano-cyclopropyl)-amide], the IC50 at Cathepsin S turned out to be 0.7 nM; at Cat L, 14000 nM.
Turning to `N#CC1(NC(=O)C2CC(S(=O)(=O)c3ccccc3C(F)(F)F)CN2c2cccc3ccccc23)CC1` (stereo not shown) [Example 345, 1-Naphthalen-1-yl-4-(2-trifluoromethyl-benzenesulfonyl)-pyrrolidine-2-carboxylic acid (1-cyano-cyclopropyl)-amide], the IC50 turned out to be 0.915 nM on Cathepsin S and 70300 nM at Cat L.
`CC1(C(=O)N2C[C@H](S(=O)(=O)c3ccccc3Cl)C[C@H]2C(=O)NC2(C#N)CC2)CC1` [Example 214, (2S,4R)-4-(2-Chloro-benzenesulfonyl)-1-(1-methyl-cyclopropanecarbonyl)-pyrrolidine-2-carboxylic acid (1-cyano-cyclopropyl)-amide]: the results for the half-maximal inhibitory concentration (IC50) at Cathepsin S and at Cat L were 0.5 nM and 11300 nM, respectively.
For the compound `CC(C)N1CCN(c2ccc(S(=O)(=O)[C@@H]3C[C@@H](C(=O)NC4(C#N)CC4)N(C(=O)C4(c5ccc(Cl)nc5)CC4)C3)c(Cl)c2)CC1` [Example 370, (2S,4R)-4-[2-Chloro-4-(4-isopropyl-piperazin-1-yl)-benzenesulfonyl]-1-[1-(6-chloro-pyridin-3-yl)-cyclopropanecarbonyl]-pyrrolidine-2-carboxylic acid (1-cyano-cyclopropyl)-amide; Compound with Formic Acid], the IC50 was 0.07 nM on Cathepsin S and 21.7 nM on Cat L.

As usually defined, the IC50 is the point on the concentration scale where inhibition reaches its midpoint.
